The text below walks through data of article PMC2631555 (Bioorganic & medicinal chemistry letters, 2008).

By EC50 is commonly meant the concentration at which the effect is half-maximal.

Data set [1] can be described thus: Solubility in PBS + 5% DMSO. To be noted: 2 h, room temperature.
For data set [2] the following is noted: PAMPA.
Another data set concerns Vero cells. To be noted: read-out: Vero EC50; 48 h exposure, CellTiter-Glo. A general note: In ATP-based viability assays light output follows the ATP content of the culture.
The next data set relates to tubulin. The settings on record: 10 µM compound; purified tubulin 7.2 µM, GTP, 37°C, 0.5% DMSO.

Each structure is given as a SMILES string.

Regarding `COc1cc2c(c(OC)c1OC)-c1ccc(OC)c(=O)cc1[C@@H](NC(C)=O)CC2` [Colchicine], the Solubility entry in data set [1] was “highly soluble”. As to `COc1cc2c(c(OC)c1OC)-c1ccc(OC)c(=O)cc1[C@@H](NC(=O)CCCCCNC(=O)COc1ccc(/C=C/C3=[N+]4C(=Cc5ccc(-c6ccc[nH]6)n5[B-]4(F)F)C=C3)cc1)CC2` [colchicine-646], in data set [2], the Permeability is <10 10^-6 cm/s. For the same compound, the EC50 with Vero cells is greater than 10 µM. On to `CC(=O)O[C@H]1C(=O)[C@@]2(C)[C@H]([C@H](OC(=O)c3ccccc3)[C@]3(O)C[C@H](OC(=O)[C@H](O)[C@@H](NC(=O)c4ccccc4)c4ccccc4)C(C)=C1C3(C)C)[C@]1(OC(C)=O)CO[C@@H]1C[C@@H]2O` [paclitaxel], for which, in the data set on tubulin, the “Microtubule formation compared with untreated tubulin” value is listed as “enhanced”.
